Test results reported in patent US6358884B1, “Bacteriocidal and fungicidal solution containing inorganic silver complex salt and process for producing the same” (Sumitomo Metal Mining Co., Ltd., priority 1997, dated 2002).

Tests used:
Staphylococcus aureus = test: Bacteriocidal test for Staphylococcus aureus (sprayed filter paper, plate culture); format: cell-based
Protocol: Using the same aqueous solution containing silver as the chloro complex salt as in Example 1 above a bacteriocidal effect to Staphylococcus aureus was evaluated. As a comparison, a bacteriocidal test was conducted in the same manner by using a sterilizing ethanol as a bacteriocidal agent instead of the aqueous solution described above. The evaluation method is as shown below.
Each of the test specimen solutions was sprayed each about by 1 g as the bacteriocidal agent do so as to be substantially uniform by using a spray on 5A filter paper of 11 cm diameter and then each filter paper was left in a room with no air conditioning facility at a room temperature for 24 hours. Subsequently, a bacteria solution adjusted to a cell number of 7×10^4 N/ml by a preliminary test was dropped each by 1 ml by using a micro-pipette to each filter paper and further left in a room with no air conditioning facility at a room temperature for 24 hours.
Then, each filter paper was transferred to a sterilized cup, and vigorously shaken for 2 min by a shaker with addition of 100 ml of water. Subsequently, 1 ml of a test solution was sampled from each of sterilized cups, subjected to plate culture at 36° C. for 72 hours each with addition of ordinary agar culture medium, and the number of colonies formed was counted.
Further as a blank test, 1 ml of a solution diluted by 100 times from the bacterial solution described above (the number of cells about 7×10^4 N/ml) was sampled to a Shale without using the bacteriocidal agent, cultivated in the same manner as described above with addition of a usual agar medium, and the number of formed colonies was counted.

bacteria = conditions: according to "Metal", vol. 65 (1995), No. 11; cited from earlier work
fungi = conditions: according to "Metal", vol. 65 (1995), No. 11; cited from earlier work

Molecule	Number of cells in Shale (Staphylococcus aureus; about 1 g sprayed on filter paper, 1 ml bacteria solution 7×10^4 N/ml, 24 h, plate culture 36° C. 72 hours)	colonies in the Shale (Staphylococcus aureus; cultivation time of 48 hours)	Number of cells per filter paper (Staphylococcus aureus; per filter paper (1 ml of bacterial solution), plate culture 36° C. 72 hours)	Increase/decrease ratio for Number of cell (Staphylococcus aureus; ratio to the number of cells dropped to filter paper (7×10^4 N/ml), 72 hours cultivation) [%]	concentration showing slow releasing bacteriocidal effect (bacteria) [mg/L]	concentration showing slow releasing fungicidal effect (fungi) [mg/L]
CCO [Sterilizing ethanol, ethanol]	507	colonies were already formed	5.1 × 10^4	72.9	–	–
silver ions	–	–	–	–	≥ 0.05	≥ 0.5
